Test results from paper PMC5484485, “In vitro and in vivo effects of kisspeptin antagonists p234, p271, p354, and p356 on GPR54 activation” (PLoS ONE, 2017).
Square brackets hold non-standard residues; d marks the D form. Ends that are not written are not given here.

Experiments:
plasma LH concentration = assay: Plasma LH in anestrous Beagle bitches during antagonist infusion and after cKP10 bolus; type: in vivo, dog; conditions: n = 6
Description: Thirteen adult anestrous Beagle bitches were used for this study. Six dogs with a median age of 89 months (range 43–122 months) were used as control group, receiving cKP10 without an antagonist. Eight dogs with a median age of 52 months (range 31–116 months) were used for the antagonist experiments. One dog was first used in the control group and 12 months later for the antagonist experiments. Of the eight dogs used for the antagonist experiments, four received p271, p354, and p356. In two of the eight dogs both p354 and p356 were tested, while in the remaining two dogs only p271 was tested, in order to test every antagonist in 6 dogs. The time between testing of different kisspeptin antagonists was at least 5 days (range 5–15 days) to ensure that there were no peptide residues. Kisspeptin antagonist p234 per se was not tested in vivo because p271 is in fact p234 with a penetratin tag to enhance passage across the blood-brain barrier, as has been described for use with peripheral administration.
Kisspeptin antagonists (50 μg/kg/h) were administered continuously for three hours via a catheter in the cephalic vein. Two hours after the start of the infusion, a single bolus of cKP10 (0.5 μg/kg) was administered intravenously. Blood samples were collected from the jugular vein by venipuncture at -40 min and 0 min before the antagonist infusion, and then every 30 min for two hours. After the administration of cKP10, blood samples were collected at 10, 20, 40, and 60 min (i.e., 130, 140, 160, and 180 min after the start of the antagonist infusion).
As a control, KP stimulation tests (without the administration of a kisspeptin antagonist) were performed in six dogs. Blood samples were collected from the jugular vein by venipuncture at -40 min and 0 min before, and then at 10, 20, 40, and 60 min after administration of cKP10 (0.5 μg/kg). Plasma LH concentrations were measured in all blood samples.
Plasma LH concentrations were measured with a heterologous radioimmunoassay validated for the dog, as described previously. The intra- and interassay CVs for values above 0.5 μg/l were 2.3 and 10.5%, respectively, and the limit of quantitation was 0.3 μg/l.
In both groups of dogs (experimental and control), the basal plasma LH concentration was calculated for each dog as the mean of the values at –40 and 0 min before cKP10 or antagonist administration. All LH values that exceeded the mean of all basal samples plus 3 SD were attributed to pulsatile secretion and were treated as outliers and excluded from statistical analysis. Log transformation of plasma LH concentrations was used because data were not normally distributed. A linear mixed model was used to analyze differences in plasma LH concentrations before and after KP10, with or without a kisspeptin antagonist (group effects: p271, p354, p356, and controls), with Bonferroni correction. P<0.05 was considered significant.

CHEM1-GPR54 cells = molecular target: T1, CHEM1-GPR54 cells (Homo sapiens, UniProt Q969F8); assay: Preliminary calcium flux assay with adherent CHEM1-GPR54 cells (unpublished); type: cell-based; conditions: too few repeats for statistics
T1 construct: host or cells: rat hematopoietic CHEM1 cells expressing endogenous Galpha15

[1] = antagonist 50 μg/kg/h iv, cKP10 0.5 μg/kg iv

T1 sequence (Q969F8 whole entry): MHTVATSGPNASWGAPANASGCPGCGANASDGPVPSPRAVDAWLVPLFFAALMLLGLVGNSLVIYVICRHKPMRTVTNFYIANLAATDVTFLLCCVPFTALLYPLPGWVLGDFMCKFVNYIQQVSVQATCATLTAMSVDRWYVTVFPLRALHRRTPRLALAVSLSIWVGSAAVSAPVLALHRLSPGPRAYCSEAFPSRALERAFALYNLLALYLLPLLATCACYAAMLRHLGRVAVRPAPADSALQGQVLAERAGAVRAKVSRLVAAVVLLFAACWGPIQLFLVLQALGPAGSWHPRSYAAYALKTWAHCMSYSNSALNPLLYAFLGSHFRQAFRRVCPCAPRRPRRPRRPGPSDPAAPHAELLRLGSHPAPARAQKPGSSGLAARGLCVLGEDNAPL

RRMKWKKY[dA]NWNGFG[dW]RF-NH2 [p271, p234 with a penetratin tag]
Median (and range) plasma LH, t = 30 (plasma LH concentration; 30 min of antagonist infusion 50 μg/kg/h iv): 3.9 (2.2–5.4) μg/L
Median (and range) plasma LH, t = 60 (plasma LH concentration; 60 min of antagonist infusion 50 μg/kg/h iv): 5.2 (2.5–10.0) μg/L
Median (and range) plasma LH, t = 90 (plasma LH concentration; 90 min of antagonist infusion 50 μg/kg/h iv): 4.5 (2.8–6.3) μg/L
Median (and range) plasma LH, t = 120 (plasma LH concentration; 120 min of antagonist infusion 50 μg/kg/h iv, before cKP10): 6.0 (3.2–7.5) μg/L
median maximum increment in plasma LH concentration after cKP10 during antagonist administration (plasma LH concentration; [1]): 12.2 µg/L
range of maximum increment in plasma LH concentration after cKP10 during antagonist administration (plasma LH concentration; [1]): 4.7 to 18.2 µg/L
Median (and range) plasma LH, t = 130 / t = 10* (plasma LH concentration; antagonist infusion 50 μg/kg/h iv, 10 min after cKP10 0.5 μg/kg iv): 16.2 (9.3–24.1) μg/L
Median (and range) plasma LH, t = 140 / t = 20* (plasma LH concentration; antagonist infusion 50 μg/kg/h iv, 20 min after cKP10 0.5 μg/kg iv): 10.0 (5.7–12.6) μg/L
Median (and range) plasma LH, t = 160 / t = 40* (plasma LH concentration; antagonist infusion 50 μg/kg/h iv, 40 min after cKP10 0.5 μg/kg iv): 6.4 (4.8–8.8) μg/L
Median (and range) plasma LH, t = 180 / t = 60* (plasma LH concentration; antagonist infusion 50 μg/kg/h iv, 60 min after cKP10 0.5 μg/kg iv): 4.8 (3.5–7.3) μg/L
Median (and range) plasma LH, Basal (plasma LH concentration; before antagonist infusion (mean of -40 and 0 min per dog)): 4.0 (2.9–5.9) μg/L
effect on basal plasma LH concentration (plasma LH concentration; continuous iv 50 μg/kg/h, anestrous bitches): did not cause significant alterations
inhibition of KP10-induced calcium response, adherent cells (CHEM1-GPR54 cells): could not be inhibited
